Test results taken from ChEMBL document CHEMBL5360558, “Molecular design, synthesis and anticancer activity of new thiopyrano[2,3-d]thiazoles based on 5-hydroxy-1,4-naphthoquinone (juglone)” (Eur J Med Chem, 2023).
Active and inactive are the calls of the source. The rule behind the calls is not given here.

How the values were obtained:
SF-295 = assay: Growth inhibition against human SF-295 cells assessed as total growth inhibitory concentration incubated for 48 hrs by sulforhodamine B spectrophotometric assay; format: functional
BT-549 [1] = assay: Growth inhibition against human BT-549 cells assessed as total growth inhibitory concentration incubated for 48 hrs by sulforhodamine B spectrophotometric assay; format: functional
[2] = Acute toxicity in C57BL/6 mouse assessed as ratio of neutrophil to lymphocyte count at 20 mg/kg,ip administration and observed after 22 days; format: organism-based; conditions: in vivo, 528 h, time 22 day
NCI-H226 = assay: Growth inhibition against human NCI-H226 cells assessed as total growth inhibitory concentration incubated for 48 hrs by sulforhodamine B spectrophotometric assay; format: functional
OVCAR-8 [3] = assay: Growth inhibition of human OVCAR-8 cells incubated for 48 hrs by sulforhodamine B spectrophotometric assay; format: functional
IGROV-1 = assay: Growth inhibition of human IGROV-1 cells incubated for 48 hrs by sulforhodamine B spectrophotometric assay; format: functional
MDA-MB-468 [4] = assay: Growth inhibition of human MDA-MB-468 cells incubated for 48 hrs by sulforhodamine B spectrophotometric assay; format: functional
M14 = assay: Growth inhibition against human M14 cells assessed as total growth inhibitory concentration incubated for 48 hrs by sulforhodamine B spectrophotometric assay; format: functional
DU-145 [5] = assay: Growth inhibition against human DU-145 cells assessed as total growth inhibitory concentration incubated for 48 hrs by sulforhodamine B spectrophotometric assay; format: functional
SK-OV-3 = assay: Growth inhibition against human SK-OV-3 cells assessed as total growth inhibitory concentration incubated for 48 hrs by sulforhodamine B spectrophotometric assay; format: functional
Malme-3M = assay: Anticancer activity against human Malme-3M cells assessed as cell growth at 10 uM incubated for 48 hrs by sulforhodamine B assay; format: functional; conditions: read-out: Activity
CAKI-1 [6] = assay: Growth inhibition against human CAKI-1 cells assessed as lethal concentration incubated for 48 hrs by sulforhodamine B spectrophotometric assay; format: functional; conditions: read-out: LC50 (the source's name)
COLO 205 = assay: Growth inhibition against human COLO 205 cells assessed as total growth inhibitory concentration incubated for 48 hrs by sulforhodamine B spectrophotometric assay; format: functional
HOP-92 = assay: Growth inhibition against human HOP-92 cells assessed as total growth inhibitory concentration incubated for 48 hrs by sulforhodamine B spectrophotometric assay; format: functional
HT-29 [7] = assay: Growth inhibition against human HT-29 cells assessed as total growth inhibitory concentration incubated for 48 hrs by sulforhodamine B spectrophotometric assay; format: functional
NCI/ADR-RES [8] = assay: Growth inhibition against human NCI/ADR-RES cells assessed as lethal concentration incubated for 48 hrs by sulforhodamine B spectrophotometric assay; format: functional; conditions: read-out: LC50 (the source's name)
HT-29 [9] = assay: Growth inhibition against human HT-29 cells assessed as lethal concentration incubated for 48 hrs by sulforhodamine B spectrophotometric assay; format: functional; conditions: read-out: LC50 (the source's name)
MDA-MB-468 [10] = assay: Growth inhibition against human MDA-MB-468 cells assessed as total growth inhibitory concentration incubated for 48 hrs by sulforhodamine B spectrophotometric assay; format: functional
Jurkat = assay: Induction of apoptosis in human Jurkat cells assessed as DNA damage by DNA laddering assay; format: functional, cell-based
DU-145 [11] = assay: Growth inhibition against human DU-145 cells assessed as lethal concentration incubated for 48 hrs by sulforhodamine B spectrophotometric assay; format: functional; conditions: read-out: LC50 (the source's name)
OVCAR-5 = assay: Growth inhibition against human OVCAR-5 cells assessed as lethal concentration incubated for 48 hrs by sulforhodamine B spectrophotometric assay; format: functional; conditions: read-out: LC50 (the source's name)
SK-MEL-2 = assay: Growth inhibition against human SK-MEL-2 cells assessed as lethal concentration incubated for 48 hrs by sulforhodamine B spectrophotometric assay; format: functional; conditions: read-out: LC50 (the source's name)
HL-60 = assay: Growth inhibition against human HL-60 cells assessed as lethal concentration incubated for 48 hrs by sulforhodamine B spectrophotometric assay; format: functional; conditions: read-out: LC50 (the source's name)
TK-10 = assay: Growth inhibition of human TK-10 cells incubated for 48 hrs by sulforhodamine B spectrophotometric assay; format: functional
[12] = Acute toxicity in C57BL/6 mouse assessed as ratio of kidney weight to body weight at 20 mg/kg,ip administration and observed after 22 days (reference value: 1.39 +/- 0.09); format: organism-based; conditions: in vivo, 528 h, time 22 day
HOP-62 = assay: Growth inhibition against human HOP-62 cells assessed as lethal concentration incubated for 48 hrs by sulforhodamine B spectrophotometric assay; format: functional; conditions: read-out: LC50 (the source's name)
[13] = Acute toxicity in C57BL/6 mouse assessed as ratio of heart weight to body weight at 20 mg/kg,ip administration and observed after 22 days (reference value: 0.62 +/- 0.08); format: organism-based; conditions: in vivo, 528 h, time 22 day
[14] = Acute toxicity in C57BL/6 mouse assessed as lymphocyte count at 20 mg/kg,ip administration and observed after 22 days; format: organism-based; conditions: in vivo, 528 h, time 22 day
UO-31 = assay: Growth inhibition against human UO-31 cells assessed as lethal concentration incubated for 48 hrs by sulforhodamine B spectrophotometric assay; format: functional; conditions: read-out: LC50 (the source's name)
OVCAR-8 [15] = assay: Growth inhibition against human OVCAR-8 cells assessed as lethal concentration incubated for 48 hrs by sulforhodamine B spectrophotometric assay; format: functional; conditions: read-out: LC50 (the source's name)
NCI/ADR-RES [16] = assay: Growth inhibition against human NCI-ADR-RES cells assessed as total growth inhibitory concentration incubated for 48 hrs by sulforhodamine B spectrophotometric assay; format: functional
CAKI-1 [17] = assay: Growth inhibition of human CAKI-1 cells incubated for 48 hrs by sulforhodamine B spectrophotometric assay; format: functional
UACC-62 = assay: Growth inhibition against human UACC-62 cells assessed as total growth inhibitory concentration incubated for 48 hrs by sulforhodamine B spectrophotometric assay; format: functional
NCI/ADR-RES [18] = assay: Growth inhibition of human NCI/ADR-RES cells incubated for 48 hrs by sulforhodamine B spectrophotometric assay; format: functional
OVCAR-3 = assay: Growth inhibition against human OVCAR-3 cells assessed as lethal concentration incubated for 48 hrs by sulforhodamine B spectrophotometric assay; format: functional; conditions: read-out: LC50 (the source's name)
CCRF-CEM = assay: Growth inhibition against human CCRF-CEM cells assessed as total growth inhibitory concentration incubated for 48 hrs by sulforhodamine B spectrophotometric assay; format: functional
BT-549 [19] = assay: Growth inhibition against human BT-549 cells assessed as lethal concentration incubated for 48 hrs by sulforhodamine B spectrophotometric assay; format: functional; conditions: read-out: LC50 (the source's name)
NCI-H322M = assay: Growth inhibition against human NCI-H322M cells assessed as total growth inhibitory concentration incubated for 48 hrs by sulforhodamine B spectrophotometric assay; format: functional
[20] = GSH reactivity of compound at pH 7.4 phosphate buffer assessed as GSH-adduct formation at 1 mM incubated for 1 hr by spectrophotometric analysis; format: physicochemical; conditions: pH 7.4, 1 h, 1000 µM
MDA-MB-231 [21] = assay: Induction of mitochondrial membrane potential loss in human MDA-MB-231 cells at 5 uM incubated for 24 hrs by JC-1 staining based flow cytometry analysis; format: functional
MDA-MB-231 [22] = assay: Induction of apoptosis in human MDA-MB-231 cells assessed as increase in caspase-9 level at 10 uM incubated for 24 hrs by flow cytometry analysis; format: functional
KM12 = assay: Growth inhibition against human KM12 cells assessed as lethal concentration incubated for 48 hrs by sulforhodamine B spectrophotometric assay; format: functional; conditions: read-out: LC50 (the source's name)
HCC 2998 = assay: Growth inhibition against human HCC 2998 cells assessed as lethal concentration incubated for 48 hrs by sulforhodamine B spectrophotometric assay; format: functional; conditions: read-out: LC50 (the source's name)
[23] = Acute toxicity in C57BL/6 mouse assessed as ratio of liver weight to body weight at 20 mg/kg,ip administration and observed after 22 days (reference value: 5.22 +/- 0.42); format: organism-based; conditions: in vivo, 528 h, time 22 day

O=C1C2=C(C(=O)c3c(O)cccc31)C(c1ccco1)c1sc(=O)[nH]c1S2 (centres undefined)
TGI (SF-295): 3.59 µM
TGI (BT-549 [1]): 3.19 µM
Ratio [2]: 0.465
TGI (NCI-H226): 5.46 µM
GI50 (OVCAR-8 [3]): 2.46 µM
GI50 (IGROV-1): 2.51 µM
GI50 (MDA-MB-468 [4]): 2.01 µM
TGI (M14): 2.37 µM
TGI (DU-145 [5]): 3.01 µM
TGI (SK-OV-3): 29.6 µM
growth at 10 µM (Malme-3M): -92.3%
CC50 (CAKI-1 [6]): 37.3 µM
TGI (COLO 205): 3.61 µM
TGI (HOP-92): 8.08 µM
TGI (HT-29 [7]): 9.25 µM
CC50 (NCI/ADR-RES [8]): > 100 µM
CC50 (HT-29 [9]): > 100 µM
TGI (MDA-MB-468 [10]): 6.59 µM
Activity (Jurkat): Active
CC50 (DU-145 [11]): 5.81 µM
CC50 (OVCAR-5): 9.85 µM
CC50 (SK-MEL-2): 52.9 µM
CC50 (HL-60): > 100 µM
GI50 (TK-10): 12.3 µM
Ratio [12]: 1.28
CC50 (HOP-62): 6.86 µM
Ratio [13]: 0.51
Activity [14]: 67.05%
CC50 (UO-31): 36.7 µM
CC50 (OVCAR-8 [15]): 36.2 µM
TGI (NCI/ADR-RES [16]): 12.3 µM
GI50 (CAKI-1 [17]): 3.29 µM
TGI (UACC-62): 3.43 µM
GI50 (NCI/ADR-RES [18]): 3.02 µM
CC50 (OVCAR-3): > 100 µM
TGI (CCRF-CEM): > 100 µM
CC50 (BT-549 [19]): 6.22 µM
TGI (NCI-H322M): 3.13 µM
Activity [20]: Active
Activity (MDA-MB-231 [21]): 15.7%
Activity (MDA-MB-231 [22]): 32.6%
CC50 (KM12): > 100 µM
CC50 (HCC 2998): 18.4 µM
Ratio [23]: 4.54
